According to patent US5952307A, “Basic α-aminoalkylphosphonate derivatives” (priority 1997, dated 1999):
Read-outs that look alike come from different tables or passages of the source.

What was measured:
human thrombin = molecular target: T1, human thrombin (Homo sapiens, UniProt P00734); type: biochemical; details: 25° C., NI = no inhibition
T1 construct: bovine trypsin, human thrombin
Outline: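 Irreversible inactivation followed by incubation method at 25 °C: 0.07 μM thrombin with 0.25–42 μM inhibitor in 80 mM Hepes pH 7.5, 428 mM NaCl, 8% DMSO. Residual activity of withdrawn aliquots measured with thioester or 4-nitroanilide substrates; kobs from pseudo-first-order fits.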

factor Xa = molecular target: T2, factor Xa (Homo sapiens, UniProt P00742); test: Inactivation rate of factor Xa, incubation method; type: biochemical; details: Table II; 0.42 μM factor Xa, 66 μM inhibitor, 80 mM Hepes pH 7.5, 428 mM NaCl, 8% DMSO, 25° C.
T2 construct: human thrombin, factor Xa, plasmin
T2 sequence (P00742 235-488 limits assumed): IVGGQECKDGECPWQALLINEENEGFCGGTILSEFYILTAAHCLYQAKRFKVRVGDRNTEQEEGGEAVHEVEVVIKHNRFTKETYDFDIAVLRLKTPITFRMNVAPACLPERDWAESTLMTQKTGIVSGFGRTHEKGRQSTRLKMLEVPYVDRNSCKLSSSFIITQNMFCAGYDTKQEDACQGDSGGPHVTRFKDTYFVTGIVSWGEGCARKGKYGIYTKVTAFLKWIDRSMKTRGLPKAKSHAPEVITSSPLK
T2 sequence (P00742 41-179 partner limits assumed): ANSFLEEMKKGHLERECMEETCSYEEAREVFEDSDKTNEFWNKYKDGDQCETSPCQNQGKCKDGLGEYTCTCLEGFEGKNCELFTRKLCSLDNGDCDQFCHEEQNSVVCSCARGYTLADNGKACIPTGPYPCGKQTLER
Method: (§1) Inactivation rates of serine proteases by aryl diesters of peptidyl derivatives of α-aminoalkylphosphonates were measured by the incubation method. An aliquot of inhibitor (25 or 50 μl) in Me2 SO was added to a buffered enzyme solution (0.01-2.3 μM) to initiate the inactivation. Aliquots (50 μl) were withdrawn at various intervals and the residual enzymatic activity was measured. Me2 SO concentration in the reaction mixture was 8-12% (v/v). A 0.1 M HEPES, 0.01 M CaCl2, pH 7.5 buffer was utilized for trypsin and trypsin-like enzymes. A 0.1 M HEPES, 0.5 M NaCl, pH 7.5, was utilized for the other serine proteases. Peptide thioesters or peptide nitroanilides with the appropriate sequences were used as substrates for various serine proteases. All peptide thioesters hydrolysis rates were measured with the assay mixture containing 4,4'-dithiodipyridine {ε324 =19800 M^-1 cm^-1; Grasetti & Murray, Arch. Biochem. Biophys. 1967, 119, 41-48}. Peptide 4-nitroanilide hydrolysis was measured at 410 nm {ε410 =8800 M^-1 cm^-1; Erlanger et al., Arch. Biochem. Biophys. 1961, 95, 271-278}. First order inactivation rate constants (Kobs) were obtained from plots of In vt /vo vs time, and the correlation coefficients were greater then 0.98.
^a Enzyme was incubated with the inhibitor in 250 μL of the proper
NaCl, 0.8 mM Mes, 9% glycerol and 8% DMSO; 0.42 μM factor Xa, 66 μM
inhibitor in an 80 mM Hepes, pH 7.5 buffer containing 428 mM NaCl and 8%
DMSO. Aliquots of 25 μL were withdrawn at various intervals and the
(§2) residual enzymatic activity was measured as described in experimental
(§3) section. The kobs values were calculated from pseudofirst-order

bovine trypsin [1] = molecular target: T3, bovine trypsin (Bos taurus, UniProt P00760); test: Inactivation rate of bovine trypsin, incubation method; type: biochemical; details: Table II; 0.13 μM trypsin, 0.25-42 μM inhibitor, 80 mM Hepes pH 7.5, 1 mM CaCl2, 8% DMSO, 25° C.; NI = no inhibition
T3 sequence (P00760 24-246): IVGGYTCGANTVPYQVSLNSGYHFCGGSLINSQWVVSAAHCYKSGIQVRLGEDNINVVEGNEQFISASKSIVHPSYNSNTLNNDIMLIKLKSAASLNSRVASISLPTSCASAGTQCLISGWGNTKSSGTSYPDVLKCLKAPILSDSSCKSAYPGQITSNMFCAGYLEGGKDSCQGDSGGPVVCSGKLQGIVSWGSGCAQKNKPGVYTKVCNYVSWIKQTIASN
Outline: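 Incubation method: trypsin pre-incubated with inhibitor (0.25-42 μM) at 25° C in 80 mM Hepes, 1 mM CaCl2, pH 7.5, 8% DMSO; aliquots withdrawn over time for residual activity on Z-Arg-SBzl thioester with DTNB or 4,4'-dithiodipyridine. Pseudo-first-order kobs from ln vt/vo versus time.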

[2] = Hydrolysis (stability) in human plasma; type: in vitro ADME
Description: Furthermore, they show excellent stability in human plasma. For example Suc-Val-Pro-Phe^P (OPh)2 has a hydrolysis half-time in human plasma of about 20 hrs. […] Thus they can be used under a variety of conditions. Phosphonates have the additional advantage of being very stable in plasma and will have a high effectiveness in vivo due to their long lifetimes.

mast cell tryptase = mast cell tryptase (Homo sapiens, UniProt Q15661); test: Inactivation rate of mast cell tryptase, incubation method; type: biochemical; details: Table III; enzyme 0.06-0.5 μM, inhibitor 0.25-42 μM, 9% DMSO, 25° C.; NI = no inhibition
mast cell tryptase, sequence (Q15661 31-275): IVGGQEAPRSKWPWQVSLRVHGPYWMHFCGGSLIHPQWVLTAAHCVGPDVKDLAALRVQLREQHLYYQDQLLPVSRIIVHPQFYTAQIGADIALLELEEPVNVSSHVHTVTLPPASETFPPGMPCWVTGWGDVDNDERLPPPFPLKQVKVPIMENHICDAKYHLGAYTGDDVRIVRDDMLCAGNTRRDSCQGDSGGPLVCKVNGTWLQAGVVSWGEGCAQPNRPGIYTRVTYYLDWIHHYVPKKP
Outline: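 Incubation method at 25 °C: 0.07 μM tryptase with 20–66 μM inhibitor in Hepes pH 7.5 containing heparin, glycerol and DMSO. Aliquots were withdrawn at intervals for residual activity on Z-Arg-SBzl or Z-Lys-SBzl with DTNB. Pseudo-first-order kobs came from ln(vt/v0) versus time.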

plasmin = molecular target: T4, plasmin (Homo sapiens, UniProt P00747); test: Inactivation rate of plasmin, incubation method; type: biochemical; details: Table III; enzyme 0.06-0.5 μM, inhibitor 0.25-42 μM, 9% DMSO, 25° C.; NI = no inhibition
T4 construct: factor Xa, plasmin, and urokinase
T4 sequence (P00747 581-810 limits assumed, species assumed): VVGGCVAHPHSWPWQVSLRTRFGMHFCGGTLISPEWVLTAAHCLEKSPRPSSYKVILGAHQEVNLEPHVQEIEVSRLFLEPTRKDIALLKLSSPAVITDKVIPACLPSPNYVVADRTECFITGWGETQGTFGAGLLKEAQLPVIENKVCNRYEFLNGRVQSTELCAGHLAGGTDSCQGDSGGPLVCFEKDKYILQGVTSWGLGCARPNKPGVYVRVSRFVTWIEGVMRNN
T4 sequence (P00747 97-580 partner limits assumed, species assumed): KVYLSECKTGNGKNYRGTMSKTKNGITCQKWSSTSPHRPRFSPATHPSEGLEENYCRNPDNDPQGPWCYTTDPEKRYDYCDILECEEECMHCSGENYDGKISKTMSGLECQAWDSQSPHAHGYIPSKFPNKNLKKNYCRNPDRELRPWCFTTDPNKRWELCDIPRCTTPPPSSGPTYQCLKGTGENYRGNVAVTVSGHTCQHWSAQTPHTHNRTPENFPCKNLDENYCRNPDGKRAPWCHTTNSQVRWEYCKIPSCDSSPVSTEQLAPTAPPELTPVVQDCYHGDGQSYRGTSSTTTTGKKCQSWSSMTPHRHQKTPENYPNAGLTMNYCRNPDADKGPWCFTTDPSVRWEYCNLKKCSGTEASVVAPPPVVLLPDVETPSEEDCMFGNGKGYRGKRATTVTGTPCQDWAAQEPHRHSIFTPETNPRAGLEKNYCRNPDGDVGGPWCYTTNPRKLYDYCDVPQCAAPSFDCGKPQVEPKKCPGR
Method: as §1
(§4) ^a Enzyme (0.06-0.5 μM) was incubated with the inhibitor (0.25-42
(§5) μM) in 250 μL of the proper buffer containing 9% DMSO at 25°
(§6) C. The final inhibition reaction mixtures are given in the footnote to
(§7) Table 1. Aliquots of 25 μL were withdrawn at various intervals and the
as §2, §3
^b Inhibitor concentration of 0.24 mM.

bovine trypsin [3] = molecular target: T3, bovine trypsin; test: Inactivation rate of bovine trypsin, incubation method; type: biochemical; details: Table III; enzyme 0.06-0.5 μM, inhibitor 0.25-42 μM, 9% DMSO, 25° C.; NI = no inhibition
urokinase = urokinase (Homo sapiens, UniProt P00749); test: Inactivation rate of urokinase, incubation method; type: biochemical; details: Table III; enzyme 0.06-0.5 μM, inhibitor 0.25-42 μM, 9% DMSO, 25° C.; NI = no inhibition
Method: as §1, §4, §5, §6, §7, §2, §3

[4] = Table II, 0.07 μM thrombin, 0.25-42 μM inhibitor, 80 mM Hepes pH 7.5, 428 mM NaCl, 8% DMSO
[5] = Table III, enzyme 0.06-0.5 μM, inhibitor 0.25-42 μM, 9% DMSO

| SMILES | kobs /[I] human thrombin (human thrombin; [4]) | kobs /[I] factor Xa (factor Xa) | kobs /[I] bovine trypsin (bovine trypsin [1]) | hydrolysis half-time in human plasma [2] | kobs /[I] mast cell tryptase (mast cell tryptase) | kobs /[I] human thrombin (human thrombin; [5]) | kobs /[I] plasmin (plasmin) | kobs /[I] bovine trypsin (bovine trypsin [3]) | kobs /[I] urokinase (urokinase) |
| --- | --- | --- | --- | --- | --- | --- | --- | --- | --- |
| CC(C)CC(NC(=O)OC(C)(C)C)C(=O)NCC(=O)NC(c1ccc(C(=N)N)cc1)P(=O)(Oc1ccccc1)Oc1ccccc1 (mixture of isomers) [Boc--D--Leu--Gly-(4-AmPhGly)^P (OPh)2] | 1,187 ± 76 M^-1 s^-1 | 10 ± 0.4 M⁻¹ s⁻¹ | 2,960 ± 300 M^-1 s^-1 | – | – | – | – | – | – |
| CC(C)(C)OC(=O)NC(Cc1ccccc1)C(=O)NCC(=O)NC(c1ccc(C(=N)N)cc1)P(=O)(Oc1ccccc1)Oc1ccccc1 (mixture of isomers) [Boc--D--Phe--Gly-(4-AmPhGly)^P (OPh)2] | 2,225 ± 106 M^-1 s^-1 | 2.8 ± 0 M⁻¹ s⁻¹ | 6,620 ± 835 M^-1 s^-1 | – | – | – | – | – | – |
| CC(C)(C)OC(=O)NC(CO)C(=O)NC(c1ccc(C(=N)N)cc1)P(=O)(Oc1ccccc1)Oc1ccccc1 (mixture of isomers) [Boc--Ser-(4-AmPhGly)^P (OPh)2] | 31 ± 2 M⁻¹ s⁻¹ | 3.5 ± 0.4 M⁻¹ s⁻¹ | 20 ± 1 M⁻¹ s⁻¹ | – | – | – | – | – | – |
| CC(C)[C@H](NC(=O)CCC(=O)O)C(=O)N1CCC[C@H]1C(=O)NC(Cc1ccccc1)P(=O)(Oc1ccccc1)Oc1ccccc1 (stereo partly drawn) [Suc-Val-Pro-Phe^P (OPh)2] | – | – | – | about 20 hrs | – | – | – | – | – |
| CC(C)CC(NC(=O)C(Cc1ccccc1)NC(=O)OC(C)(C)C)C(=O)NC(c1ccc(C(=N)N)cc1)P(=O)(Oc1ccccc1)Oc1ccccc1 (mixture of isomers) [Boc--D--Phe--Leu-(4-AmPhGly)^P (OPh)2] | 921 ± 44 M⁻¹ s⁻¹ | 1.4 ± 0.4 M⁻¹ s⁻¹ | 24 ± 2 M⁻¹ s⁻¹ | – | – | – | – | – | – |
| CC(C)CC(N)C(=O)NC(CC(=O)O)C(=O)N1CCCC1C(=O)NC(c1ccc(C(=N)N)cc1)P(=O)(Oc1ccccc1)Oc1ccccc1 (mixture of isomers) [Leu--Asp--Pro-(4-AmPhGly)^P (OPh)2] | 65 ± 1 M⁻¹ s⁻¹ | 1.3 ± 0.2 M⁻¹ s⁻¹ | 204 ± 19 M⁻¹ s⁻¹ | – | – | – | – | – | – |
| Cl.NCCCCC(NC(=O)[C@@H]1CCCN1C(=O)c1cccc(Oc2ccccc2)c1)P(=O)(Oc1ccccc1)Oc1ccccc1 (stereo partly drawn) [3-Phenoxybenzoyl-Pro--Lys^P (OPh)2, Diphenyl 1-(N-(3-Phenoxybenzoylprolyl)amino)-5-aminopentanephosphonate Hydrochloride] | – | – | – | – | 16 ± 1 M⁻¹ s⁻¹ | 1,142 ± 52 M^-1 s^-1 | 7.4 ± 0.6 M⁻¹ s⁻¹ | 19,380 ± 300 M^-1 s^-1 | 1.6 ± 0.1 M⁻¹ s⁻¹ |
| N=C(N)c1ccc(C(NC(=O)CNC(=O)C(CCC(=O)O)NC(=O)OCc2ccccc2)P(=O)(Oc2ccccc2)Oc2ccccc2)cc1 (mixture of isomers) [Cbz--Glu--Gly-(4-AmPhGly)^P (OPh)2] | 46 ± 5 M⁻¹ s⁻¹ | 1.4 ± 0.1 M⁻¹ s⁻¹ | 70 ± 5 M⁻¹ s⁻¹ | – | – | – | – | – | – |
| NCCCCC(NC(=O)[C@@H]1CCCN1C(=O)CC(c1ccccc1)c1ccccc1)P(=O)(Oc1ccccc1)Oc1ccccc1 (stereo partly drawn) [3,3-Diphenylpropanoyl-Pro--Lys^P (OPh)2] | – | – | – | – | 74 ± 9 M⁻¹ s⁻¹ | 27,450 ± 803 M^-1 s^-1 | 7.0 ± 0.2 M⁻¹ s⁻¹ | 14,447 ± 905 M^-1 s^-1 | 1.5 ± 0.0 M⁻¹ s⁻¹ |
| CC(C)(C)OC(=O)NC(Cc1ccccc1)C(=O)N1CCCC1C(=O)NC(CCCCN)P(=O)(Oc1ccccc1)Oc1ccccc1 (mixture of isomers) [Boc--D--Phe--Pro--Lys^P (OPh)2] | – | – | – | – | 68 ± 4 M⁻¹ s⁻¹ | 9,364 ± 110 M^-1 s^-1 | 51 ± 4 M⁻¹ s⁻¹ | 28,840 ± 1,800 M^-1 s^-1 | 38 ± 3 M⁻¹ s⁻¹ |
| CC(C)CC(NC(=O)OC(C)(C)C)C(=O)NC(CC(=O)OC(C)(C)C)C(=O)N1CCCC1C(=O)NC(c1ccc(C(=N)N)cc1)P(=O)(Oc1ccccc1)Oc1ccccc1 (mixture of isomers) [Boc--Leu--Asp(O-t-Bu)--Pro-(4-AmPhGly)^P (OPh)2] | 502 ± 21 M⁻¹ s⁻¹ | 8 ± 1 M⁻¹ s⁻¹ | 670 ± 53 M⁻¹ s⁻¹ | – | – | – | – | – | – |
| Cl.NCCCCC(NC(=O)OCc1ccccc1)P(=O)(Oc1ccccc1)Oc1ccccc1 (stereo not drawn) [Cbz--Lys^P (OPh)2, Diphenyl N-(N-Benzyloxycarbonyl)amino(4-aminobutyl)methanephosphonate Hydrochloride] | – | – | – | – | 17 ± 1 M⁻¹ s⁻¹ | 17 M⁻¹ s⁻¹ | 8.2 ± 0.4 M⁻¹ s⁻¹ | 6,235 M^-1 s^-1 | 15 ± 2 M⁻¹ s⁻¹ |
